Among the data in patent US9290511B2, “Thieno-pyrimidines, useful as potassium channel inhibitors” (XENTION LIMITED, priority 2011, dated 2016) are IC50 values, retold here.

The target of the assay is T1, Kir3.1/3.4 (Rattus norvegicus, UniProt P48548+P63251).
T1 construct: expressed in transfected cells
T1 sequence (P63251 1-501): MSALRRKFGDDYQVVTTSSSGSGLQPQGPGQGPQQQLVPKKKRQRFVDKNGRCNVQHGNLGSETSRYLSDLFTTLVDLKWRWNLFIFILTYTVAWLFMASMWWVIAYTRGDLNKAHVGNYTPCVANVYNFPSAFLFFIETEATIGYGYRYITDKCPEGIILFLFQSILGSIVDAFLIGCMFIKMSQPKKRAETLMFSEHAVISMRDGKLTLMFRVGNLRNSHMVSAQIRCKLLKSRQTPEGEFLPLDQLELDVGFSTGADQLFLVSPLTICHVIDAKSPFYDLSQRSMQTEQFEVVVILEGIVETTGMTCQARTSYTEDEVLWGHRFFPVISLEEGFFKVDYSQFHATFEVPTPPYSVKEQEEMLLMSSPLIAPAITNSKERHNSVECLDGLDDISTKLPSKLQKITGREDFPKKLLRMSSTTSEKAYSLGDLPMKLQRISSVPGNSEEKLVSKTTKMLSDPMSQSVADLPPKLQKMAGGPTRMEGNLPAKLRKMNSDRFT
T1 sequence (P48548 1-419): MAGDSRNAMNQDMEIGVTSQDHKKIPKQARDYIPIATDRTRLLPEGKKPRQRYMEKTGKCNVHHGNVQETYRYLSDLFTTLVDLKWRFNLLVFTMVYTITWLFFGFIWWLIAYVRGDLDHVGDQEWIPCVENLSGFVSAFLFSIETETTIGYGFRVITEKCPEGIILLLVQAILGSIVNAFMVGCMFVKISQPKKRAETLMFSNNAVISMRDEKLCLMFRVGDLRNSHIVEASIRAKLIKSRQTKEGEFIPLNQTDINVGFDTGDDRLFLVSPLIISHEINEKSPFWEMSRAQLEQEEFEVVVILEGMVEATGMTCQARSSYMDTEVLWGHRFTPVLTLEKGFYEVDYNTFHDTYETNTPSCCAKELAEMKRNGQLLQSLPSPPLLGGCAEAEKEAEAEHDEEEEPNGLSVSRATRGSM
The assay is described as follows: Kir3.1/3.4 Electrophysiology Method (manual whole-cell patch clamp). Type of assay: cell-based. The following applies: Electrophysiology Method (TABLE 1). The procedure: Compound activity against the recombinant G-protein activated inward rectifier current encoded by the heterotetramer Kir3.1/3.4 was assessed using manual whole-cell patch technique. The heterotetramer forms the pore-forming channel that conducts the acetylcholine/adenosine-activated potassium current in the heart.
For whole-cell patch-clamp studies, cells (Human Embryonic Kidney 293 stably transfected with rat Kir3.1/3.4) were seeded onto glass coverslips before recordings were made. Cells were seeded in sterile 30 mm Petri dishes at a density to enable isolated cells to be selected for patch clamp experiments. The dishes were stored in a humidified, gassed (5% CO2) incubator at 37° C. until use.
Whole-cell patch-clamp recordings of membrane currents were made following gigaohm seal formation between the patch electrode and the cell using HEKA EPC-9/10 amplifiers controlled by Pulse Software (Ver8.5x/8.6×/8.7×, HEKA, Germany). Coverslips seeded with cells were placed in a recording chamber mounted on the stage of an inverted microscope. During the experiment, the cell of interest was continuously superfused with bather solution delivered via a cannula placed in close proximity to the cell to enable control of the extracellular solution environment. Only those cells with a current <−500 pA (current at −140 mV) were used for experiments. During experiments, series resistance was compensated by a minimum of 70%.
Electrophysiology voltage-step protocols and analysis of data were performed as follows. Data was sampled at 5 kHz, and filtered with a −3 dB bandwidth of 2.5 kHz. Cells were held at a voltage of −60 mV. Currents were evoked by a depolarising voltage step to +60 mV (100 ms) before a ramp-repolarisation (0.4 V·s^−1) to −140 mV (100 ms) before returning to −60 mV. The command waveform was repeatedly applied every 10 s throughout the experiment. Mean currents during 1-99% of the time at −140 mV were analysed using Pulsefit software (v8.x, HEKA, Germany). The voltage protocol was repeatedly applied to achieve a stable current baseline in bather before the test substance was superfused via the cannula in close proximity to the cell under investigation. The test substance was allowed to equilibrate during which time voltage protocol was repeatedly applied and recorded. On reaching steady-state inhibition, the cell was superfused with an identical bather solution containing zero external potassium chloride (replaced by equimolar NaCl). The identical current measurement was made in the absence of potassium to assess the passive leak at −140 mV. The leak current was subtracted from the control and steady-state drug current values. The percentage inhibition of the leak-subtracted current in the presence of test substance was calculated relative to the control leak-subtracted pre-drug value. Internal patch-pipette solution contained in mM: 110 KCl, 20 NaCl, 0.9 GTPγS, 5 Mg-ATP, 5 EGTA, 10 HEPES, pH7.2 corrected with KOH. The external superfusate composition in mM was: 150 (or 160) NaCl, 10 (or 0) KCl, 3 CaCl2, 1 MgCl, 10 HEPES, pH 7.4 corrected with NaOH.
(In general: In patch-clamp work, channel activity is measured electrically.)

One may read the IC50 as the concentration needed to halve the response being measured. Low readings indicate greater potency in that assay, high ones weaker potency in that assay. In the case of `c1ccc(-c2csc3ncnc(N4CCCC(CNC5CCC5)C4)c23)cc1` (stereo not shown) [Example 207], the half-inhibitory concentration (IC50) was 500 to 3000 nM.

For the compound `Nc1nc(N2CCC(COCCN3CCCC3)CC2)c2c(-c3ccccc3)csc2n1` [Example 314, 5-phenyl-4-[4-(2-pyrrolidin-1-ylethoxymethyl)-1-piperidyl]thieno[2,3-d]pyrimidin-2-amine], the concentration for half-maximal inhibition (IC50) is < 500 nM.

As to `Cc1sc2ncnc(N3CCC(CNC4CCN(C)CC4)CC3)c2c1C` [Example 232], the IC50 is < 500 nM. For `Fc1ccc(-c2csc3nc(N4CCC(COCCN5CCCC5)CC4)ncc23)cc1` [Example 152], the IC50 was < 500 nM. In the case of `F[C@@H]1CCN(CCOCC2CCN(c3ncc4c(-c5ccccc5)csc4n3)CC2)C1` [Example 151] it was < 500 nM; in that of `CN1CCCC1CCOCC1CCN(c2nc(N3CCC(C(N)=O)C3)nc3scc(-c4ccccc4)c23)CC1` (stereo not shown) [Example 255], < 500 nM; in that of `Fc1ccc(-c2csc3ncnc(N4CCC(CNC5CC5)CC4)c23)cc1` [Example 77, N-[[1-[5-(4-fluorophenyl)thieno[2,3-d]pyrimidin-4-yl]-4-piperidyl]methyl]cyclopropanamine], 500 to 3000 nM. The figure for `CN1CCCC1CCNCC1CCN(c2ncnc3scc(-c4ccccc4)c23)CC1` (stereo not shown) [Example 58, 2-(1-methylpyrrolidin-2-yl)-N—[[1-(5-phenylthieno[2,3-d]pyrimidin-4-yl)-4-piperidyl]methyl]ethanamine] is < 500 nM. In the case of `CN1CCC(N(C)CC2CCN(c3nc(N4CCC(C(N)=O)CC4)nc4scc(-c5ccccc5)c34)CC2)C1` (stereo not shown) [Example 239] it was < 500 nM; in that of `O=C1CN(c2nc(N3CCC(CNC4CCC4)CC3)c3c(-c4ccccc4)csc3n2)CCN1` [Example 125], 500 to 3000 nM. Regarding `CC(C)(C)OC(=O)N1CCCC1CCNCC1CCN(c2ncnc3scc(-c4ccccc4)c23)CC1` (stereo not shown) [Example 82, tert-butyl 2-[2-[[1-(5-phenylthieno[2,3-d]pyrimidin-4-yl)-4-piperidyl]methylamino]ethyl]pyrrolidine-1-carboxylate], the IC50 was < 500 nM. The figure for `CN1CC(N(C)CC2CCN(c3ncnc4scc(-c5ccccc5)c34)CC2)CC1=O` (stereo not shown) [Example 250] is 500 to 3000 nM; for `CN1CCC(N(C)CC2CCN(c3nc(N4CCCC4C(N)=O)nc4scc(-c5ccccc5)c34)CC2)C1` (stereo not shown) [Example 130] it is 500 to 3000 nM.

With `c1ccc(-c2csc3nccc(N4CCC(COCCN5CCCC5)CC4)c23)cc1` [Example 142, 3-phenyl-4-[4-(2-pyrrolidin-1-ylethoxymethyl)-1-piperidyl]thieno[2,3-b]pyridine], the IC50 is < 500 nM. In the case of `CN(C)C1CCN(CC2CCN(c3ncnc4scc(-c5ccccc5)c34)CC2)CC1` [Example 75, N,N-dimethyl-1-[[1-(5-phenylthieno[2,3-d]pyrimidin-4-yl)-4-piperidyl]methyl]piperidin-4-amine] it was < 500 nM.

For the compound `COc1ccccc1-c1csc2nc(C3CC3)nc(N3CCC(COCCN4CCCC4)CC3)c12` [Example 358, 2-cyclopropyl-5-(2-methoxyphenyl)-4-[4-(2-pyrrolidin-1-ylethoxymethyl)-1-piperidyl]thieno[2,3-d]pyrimidine], the concentration for half-maximal inhibition (IC50) is < 500 nM. The figure for `c1ccc(-c2csc3ncnc(N4CCC(CNC5CC5)CC4)c23)cc1` [Example 74, N-[[1-(5-phenylthieno[2,3-d]pyrimidin-4-yl)-4-piperidyl]methyl]cyclopropanamine] is < 500 nM; for `c1ccc(-c2csc3ncnc(N4CCC(CNCCC5CCCN5)CC4)c23)cc1` (stereo not shown) [Example 85, N-[[1-(5-phenylthieno[2,3-d]pyrimidin-4-yl)-4-piperidyl]methyl]-2-pyrrolidin-2-yl-ethanamine] it is 500 to 3000 nM; for `CC(C)NC1CC2CCC(C1)N2c1ncnc2scc(-c3ccccc3)c12` (stereo not shown) [Example 327, N-isopropyl-8-(5-phenylthieno[2,3-d]pyrimidin-4-yl)-8-azabicyclo[3.2.1]octan-3-amine] it is < 500 nM. The figure for `COCC1CCN(c2nc(N3C4CCC3CC(O)C4)nc3scc(-c4ccccc4)c23)CC1` (stereo not shown) [Example 299] is 500 to 3000 nM; for `CN1CCC(N(C)CC2CCN(c3nc(N4CC(C(N)=O)C4)nc4scc(-c5ccccc5)c34)CC2)C1` (stereo not shown) [Example 237] it is < 500 nM. In the case of `c1ccc(-c2csc3nc(C4CC4)nc(N4C5CCC4CC(NC4CCC4)C5)c23)cc1` (stereo not shown) [Example 321, N-cyclobutyl-8-(2-cyclopropyl-5-phenyl-thieno[2,3-d]pyrimidin-4-yl)-8-azabicyclo[3.2.1]octan-3-amine] it was < 500 nM. “N-methyl-5-phenyl-thieno[2,3-d]pyrimidine-6-carboxamide [Example 343]” came in with an IC50 of 500 to 3000 nM. The figure for `c1ccc(-c2csc3nc(N4CCC(COCCN5CC6CC5CO6)CC4)ncc23)cc1` (stereo not shown) [Example 154] is < 500 nM; for `CCc1c(C)sc2ncnc(N3CCC(COCCC4CCCN4C)CC3)c12` (stereo not shown) [Example 24, 5-ethyl-6-methyl-4-[4-[2-(1-methylpyrrolidin-2-yl)ethoxymethyl]-1-piperidyl]thieno[2,3-d]pyrimidine] it is < 500 nM; for `CN1CCC(N(C)CC2CCN(c3nc(N4CCC[C@@H]4C(N)=O)nc4scc(-c5ccccc5)c34)CC2)C1` (stereo partly shown) [Example 229] it is < 500 nM.

With `O=C1CCCN1c1sc2ncnc(N3CCC(COCCN4CCCC4)CC3)c2c1-c1ccccc1` [Example 163], the IC50 was < 500 nM.

On to `CNC(=O)C1CCCN(c2nc(N3CCC(CN(C)C4CCN(C)C4)CC3)c3c(-c4ccccc4)csc3n2)C1` (stereo not shown) [Example 227], for which the concentration for half-maximal inhibition (IC50) is < 500 nM. For `CN(C)CCOCC1CCN(c2nc(N3CCC(C(N)=O)C3)nc3scc(-c4ccccc4)c23)CC1` (stereo not shown) [Example 14, 1-[4-[4-(2-dimethylaminoethyloxymethyl)-1-piperidyl]-5-phenyl-thieno[2,3-d]pyrimidin-2-yl]pyrrolidine-3-carboxamide], the IC50 is < 500 nM. In the case of `c1ccc(-c2csc3nc(N4CCC(COCCN5CCCC5)CC4)nc(N4CCOCC4)c23)cc1` [Example 276] it was < 500 nM; in that of `COc1ncccc1-c1csc2ncnc(N3C4CCC3CC(COCCN3CCCC3)C4)c12` (stereo not shown) [Example 363], < 500 nM; in that of `CN(C)[C@@H]1CCN(CC2CCN(c3ncnc4scc(-c5ccccc5)c34)CC2)C1` [Example 81, (3R)-N,N-dimethyl-1-[[1-(5-phenylthieno[2,3-d]pyrimidin-4-yl)-4-piperidyl]methyl]pyrrolidin-3-amine], < 500 nM. The figure for `c1ccc(-c2csc3ncnc(N4CCC(COC5CCOC5)CC4)c23)cc1` (stereo not shown) [Example 16, 5-phenyl-4-[4-(tetrahydrofuran-3-yloxymethyl)-1-piperidyl]thieno[2,3-d]pyrimidine] is 500 to 3000 nM.

Turning to `FC(F)(F)c1nc(N2CCOCC2)c2c(-c3ccccc3)csc2n1` [Example 336], the IC50 was 500 to 3000 nM.
